Results as given in patent US20120301457A1 (priority 2010, published 2012).

The compounds below were run against recombinant mouse PrP (Mus musculus, UniProt P04925).
Assay type: biochemical

Compound | ability to facilitate amplification and propagation of PrP^Sc
cerebrosides | facilitate prion amplification to a lesser extent
phosphatidylinositol | facilitate prion amplification to a lesser extent
phosphatidylcholine | facilitate prion amplification to a lesser extent
phosphatidylglycerol | facilitate prion amplification to a lesser extent
CCCCCCCC/C=C\CCCCCCCC(=O)O[C@H](CO/C=C\CCCCCCCCCCCCCCCC)COP(=O)(O)OCCN [C18(Plasm)-18:1 PE, 1-(1Z-octadecenyl)-2-oleoyl-sn-glycero-3-phosphoethanolamine] | successfully facilitated propagation
CCCCC/C=C\C/C=C\C/C=C\C/C=C\CCCC(=O)O[C@H](CO/C=C\CCCCCCCCCCCCCCCC)COP(=O)(O)OCCN [C18(Plasm)-20:4 PE, 1-(1Z-octadecenyl)-2-arachidonoyl-sn-glycero-3-phosphoethanolamine] | successfully facilitated propagation
phosphatidic acid | facilitate prion amplification to a lesser extent
CCCCCCCCCCCCCCCC(=O)OC[C@H](COP(=O)(O)OCCN)OC(=O)CCCCCCCCCCCNc1ccc([N+](=O)[O-])c2nonc12 [16:0-12:0 NBD PE, 1-palmitoyl-2-{12-[(7-nitro-2-1,3-benzoxadiazol-4-yl)amino]lauroyl}-sn-glycero-3-phosphoethanolamine] | successfully facilitated propagation
sulfatides | facilitate prion amplification to a lesser extent
CCCCCCCC/C=C\CCCCCCCC(=O)O[C@H](COC(=O)CCCCCCCCCCCCCCC)COP(=O)(O)OCCN [16:0-18:1 PE, 1-palmitoyl-2-oleoyl-sn-glycero-3-phosphoethanolamine] | successfully facilitated propagation
phosphatidylserine | facilitate prion amplification to a lesser extent
